Here are results for 21 molecules from patent publication US10851075B2, “Stat3 pathway inhibitors and cancer stem cell inhibitors” (Sumitomo Dainippon Pharma Oncology, Inc., priority 2007, dated 2020).

In one assay the test system is HeLa cells. The assay can be described thus: MTT cell viability, HeLa. Type of assay: cell-based. The following applies: Homo sapiens; Hela; MTT at 24 hours; Table 4; read-out: IC50 (μM) Hela. An excerpt: (§1) Cell Culture: HeLa, DU145, H1299, DLD1, SW480, A549, MCF7, LN18, HCT116, HepG2, Paca2, Panel, LNcap, FaDu, HT29, and PC3 cells (ATCC, Manassas, Va.) were maintained in Dulbecco's Modified Eagle Medium (DMEM) (Invitrogen, Carlsbad, Calif.) supplemented with 10% fetal bovine serum (MS) (Gemini Bio-Products, West Sacramento, Calif.) and 5% penicillin/streptomycin/amphotercin B (Invitrogen).
(§2) Cell Viability Determination: For 3-(4,5 dimethylthiazol-2-yl)-2,5-diphenyltetrazolium (MTT) (Sigma-Aldrich, St. Louis, Mo.) analysis, cells were plated in 96 well plates at 10,000 cells per well. 24 hours after plating, compound was added to cells at indicated doses. 22 hours following compound addition, MTT was added to each well (0.5 mg/ml, final concentration) and plates were incubated for an additional 2 hours at 37° C., Medium was then aspirated and the formazan product was solubilized in 100 μl of isopropyl alcohol. The absorbance of each well was measured at 570 nm using a microplate reader.
(§3) Identification of compounds that are apoptotic to a broad spectrum of cancer cells in vitro. Cells plated in 96 well plates and treated with indicated compounds were subjected to MTT analysis at 24 hours following compound treatment to determine cell viability.

The next assay concerns DU145 cells. Nature of the assay: MTT cell viability, DU145. The format is cell-based. The following applies: Homo sapiens, DU-145; DU145; MTT at 24 hours; Table 4; read-out: IC50 (μM) DU145.
Description: as §1, §2, §3

The next assay deals with H1299 cells. Nature of the assay: MTT cell viability, H1299. Type of assay: cell-based. The following applies: Homo sapiens, NCI-H1299; H1299; MTT at 24 hours; Table 4; read-out: IC50 (μM) H1299.
Description: as §1, §2, §3

Assay [1] deals with Stat3 transcription activity. Nature of the assay: Stat3-luciferase (Stat3-Luc) reporter assay in HeLa cells, OSM stimulated. Type of assay: cell-based. The following applies: Homo sapiens, compound 30 minutes before 25 ng/ml oncostatin M, 6 hours, read-out: IC50 in Stat3-Luc assays. The protocol:
Luciferase Reporter Assay: HeLa Cells were co-transfected with Stat3-luciferase (Stat3-Luc) reporter vector (Panomics, Fremont, Calif.) and Renilla luciferase (Promega, Madison, Wis.) using Lipofectamine 2000 as described by the manufacturer (Invitrogen). Following transfection, cells were maintained in medium containing 0.5% FBS for 24 hours. Cells were then treated with the indicated compound for 30 minutes prior to the addition of 25 ng/ml oncostatin M (OSM) (R&D Systems, Minneapolis, Minn.) to the medium. 6 hours following OSM addition, cells were harvested and levels of firefly and renilla luciferase were measured using the Dual-Glo Luciferase Assay System as described by the manufacturer (Promega).
Inhibition of Stat3 transcription activity. Compounds were tested for their ability to inhibit Stat3 transcription activation activity in cells using a Stat3-luciferase (Stat3-luc) reporter construct. Cells transfected with Stat3-luc were cultured in reduced serum medium prior to addition of indicated compound for 30 minutes. Cells were then stimulated with 25 ng/ml oncostatin (OSM) for 6 hours followed by detection of Stat3-luc reporter activity.

The target in assay [2] is T1, Stat3 DNA-binding activity (Homo sapiens, UniProt P40763).
T1 construct: endogenous in cells; host or cells: HeLa cells (nuclear extract)
T1 sequence (P40763 whole entry): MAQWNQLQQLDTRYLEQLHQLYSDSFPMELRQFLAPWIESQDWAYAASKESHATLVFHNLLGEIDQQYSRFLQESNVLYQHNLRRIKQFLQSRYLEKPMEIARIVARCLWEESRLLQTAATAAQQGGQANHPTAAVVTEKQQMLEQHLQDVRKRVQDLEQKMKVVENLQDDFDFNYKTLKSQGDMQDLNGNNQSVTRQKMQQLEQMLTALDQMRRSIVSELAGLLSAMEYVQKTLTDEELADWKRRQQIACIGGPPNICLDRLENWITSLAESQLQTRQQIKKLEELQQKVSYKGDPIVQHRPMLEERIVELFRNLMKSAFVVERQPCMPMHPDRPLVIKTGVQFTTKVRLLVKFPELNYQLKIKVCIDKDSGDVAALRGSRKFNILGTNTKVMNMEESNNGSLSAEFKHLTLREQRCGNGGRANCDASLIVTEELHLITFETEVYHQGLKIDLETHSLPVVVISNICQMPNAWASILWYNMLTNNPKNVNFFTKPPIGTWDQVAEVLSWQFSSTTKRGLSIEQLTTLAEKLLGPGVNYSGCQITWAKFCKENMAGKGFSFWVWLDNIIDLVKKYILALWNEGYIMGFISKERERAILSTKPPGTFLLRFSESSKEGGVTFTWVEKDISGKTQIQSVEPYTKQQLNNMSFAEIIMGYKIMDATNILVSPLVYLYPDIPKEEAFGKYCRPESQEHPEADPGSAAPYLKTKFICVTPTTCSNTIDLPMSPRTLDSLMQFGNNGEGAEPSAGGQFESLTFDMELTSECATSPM
Nature of the assay: Stat3 DNA binding assay (EMSA), HeLa nuclear extract. Type of assay: biochemical. The following applies: for inhibition % 1 × MTT IC50: compound at 1 × MTT IC50, untreated Stat3 retarded band set as 100; for inhibition % 3 × MTT IC50: compound at 3 × MTT IC50, untreated Stat3 retarded band set as 100. The protocol:
STAT3 DNA Binding Assay: Electrophoretic mobility shift assay (EMSA) was performed as described by the manufacturer (Li-Cor Biosciences, Lincoln, Nebr.). Briefly, nuclear extracts were made from HeLa cells using the NucBuster Protein Extraction Kit as described by the manufacturer (EMD Biosciences, San Diego, Calif.). 5 μg of nuclear extract was pre-incubated with the indicated dose of indicated compound for 30 minutes prior to a 15-minute incubation with the IR700-labeled consensus Stat3 oligonucleotide. Samples were then electrophoresed on a polyacrylamide gel and directly scanned using the Odyssey infrared imaging system (Li-Cor Biosciences). For the enzyme-linked immunosorbent assay (ELISA), 5 μg of nuclear extract was preincubated with indicated concentration of indicated compound for 30 minutes prior to the addition of biotinylated oligo (5′-Biotin-[…]-3′). Stat3-DNA complexes were then captured on streptavidin coated 96 well plates (Pierce, Rockford, Ill.). Bound complexes were then incubated with Stat3 polyclonal antibody (Santa Cruz Biotechnology, Santa Cruz, Calif.) followed by anti-rabbit HRP conjugated secondary antibody (GE Healthcare, Pittsburgh, Pa.). Bound antibody was then visualized by addition of TMB substrate (Pierce) and absorbance measured at 450 nm.
Inhibition of Stat3 DNA-binding activity. Nuclear extracts from HeLa cells, which contain constitutively activated Stat3 as detected by phoshporylation at the tyrosine 705 residue, were used to perform Stat3 EMSAs to monitor Stat3 DNA binding activity. Nuclear extracts were incubated with indicated compound prior to incubation with IR700-labeled Stat3 consensus oligonucleotide. Binding of Stat3 to the oligonucleotide was monitored by gel electrophoresis and detection using a LiCor Odyssey infrared scanner.
To calculate the inhibition %, the density of the untreated Stat3 retarded band (control) was set as 100 and the inhibition % was the difference between the control and the relative DNA binding activity of the drug-treated samples.
On the technique in general: Mobility shift assays separate free from complexed probe on a gel.

Turning to `CC(=O)OC(C)c1cc2c(o1)C(=O)c1cc(F)ccc1C2=O` (stereo not shown) [Compound 305], the IC50 – broadly, the point on the concentration scale where inhibition reaches its midpoint – was found to be 1.71 µM in the assay on HeLa cells and 1.1 µM in the assay with DU145 cells.
In the case of `Cc1cc2c(o1)C(=O)c1ccccc1C2=O` [Compound 102], in the assay with HeLa cells, the IC50 is 11.4 µM.
On to `Cc1oc2c(c1-c1ccccc1)C(=O)c1ccccc1C2=O` [Compound 108], for which the IC50 was 20.7 µM with HeLa cells and 30.8 µM in the assay with DU145 cells.
As for `O=C(c1ccc([N+](=O)[O-])cc1)c1cc2c(s1)C(=O)c1ccccc1C2=O` [Compound 403], the figures for the IC50 in the assay with H1299 cells and in the assay on DU145 cells were 4 µM and 6.5 µM, respectively.
Take `O=Cc1cc2c(o1)C(=O)c1ccccc1C2=O` [Compound 414]: the IC50 in the assay on H1299 cells came out at 11.3 µM; in the assay on HeLa cells, 13 µM; in the assay on DU145 cells it was 14.1 µM.
As for `COc1ccc(C(=O)c2cc3c(s2)C(=O)c2ccccc2C3=O)cc1` [Compound 407], the IC50 in the assay with H1299 cells is 4.11 µM; in the assay on HeLa cells, 3.78 µM; in the assay with DU145 cells it was 2.1 µM; in assay [1], roughly 5 µM.
For the molecule `O=C(c1cccc(Cl)c1)c1cc2c(o1)C(=O)c1ccccc1C2=O` [Compound 417], in the assay with DU145 cells, the IC50 was 0.768 µM.
`O=C(c1ccccc1)c1cc2c(o1)C(=O)c1cc(F)ccc1C2=O` [Compound 419]: in the assay with DU145 cells, the IC50 came to 1.82 µM.
On to `O=C1c2ccccc2C(=O)c2oc(Cc3ccccc3)cc21` [Compound 103], for which the results for the half-maximal inhibitory concentration (IC50) in the assay on H1299 cells, in the assay on HeLa cells and in the assay on DU145 cells were 8.9 µM, 16.7 µM and greater than 10 µM, respectively. Further, the “inhibition % 1 × MTT IC50” value in assay [2] amounted to 98%. Further, the “inhibition % 3 × MTT IC50” value in assay [2] is reported as 26%.
In the case of `COc1ccc(C(=O)c2cc3c(s2)C(=O)c2ccccc2C3=O)cc1OC` [Compound 410], the concentration for half-maximal inhibition (IC50) is 1.88 µM in the assay with H1299 cells, 2.52 µM in the assay with HeLa cells, 0.239 µM in the assay on DU145 cells and roughly 1 µM in assay [1].
On to `CC(O)c1cc2c(o1)C(=O)c1ccccc1C2=O` (stereo not shown) [Compound 301], for which the IC50 in the assay on H1299 cells was determined as 0.794 µM; in the assay on HeLa cells, 3.36 µM. For the same molecule, the “inhibition % 1 × MTT IC50” value in assay [2] was 20%. Moreover, in assay [2], the “inhibition % 3 × MTT IC50” value stood at 26%.
`COc1ccc(C(=O)c2cc3c(o2)C(=O)c2ccccc2C3=O)cc1OC` [Compound 413]: the figures for the IC50 in the assay with H1299 cells, with HeLa cells and with DU145 cells were 1.9 µM, 4.38 µM and 0.721 µM, respectively.
For the molecule `C=Cc1cc2c(o1)C(=O)c1ccccc1C2=O` [Compound 201], the IC50 in the assay with DU145 cells amounted to 1.76 µM.
For `CC(=O)c1cc2c(s1)C(=O)c1ccccc1C2=O` [Compound 409], the IC50 is 1.03 µM in the assay on H1299 cells, 1.88 µM in the assay with HeLa cells, 0.442 µM in the assay with DU145 cells and roughly 2 µM in assay [1].
Take `CCc1cc2c(o1)C(=O)c1cc(Cl)ccc1C2=O` [Compound 105]: the IC50 amounted to 8.4 µM in the assay on H1299 cells, 13 µM with HeLa cells and 6.5 µM with DU145 cells.
On the same counts, the results for `O=C(c1ccc(O)c(O)c1)c1cc2c(s1)C(=O)c1ccccc1C2=O` [Compound 411] are 14.1 µM, 14.7 µM and 0.616 µM.
For `O=C(c1ccccc1)c1cc2c(o1)C(=O)c1cc(Br)ccc1C2=O` [Compound 415], the IC50 with H1299 cells amounted to 6.5 µM; with HeLa cells it was 10.5 µM; in the assay with DU145 cells, 9.8 µM.
For the molecule `CCc1cc2c(o1)C(=O)c1ccccc1C2=O` [Compound 101], the IC50 in the assay with H1299 cells was 3 to 10 µM; with HeLa cells, 11.7 µM; in the assay on DU145 cells it was 3.7 µM.
As to `O=C(c1ccc(O)cc1)c1cc2c(s1)C(=O)c1ccccc1C2=O` [Compound 408], the IC50 is 3.62 µM in the assay with H1299 cells, 4.47 µM with HeLa cells, 0.554 µM in the assay with DU145 cells and roughly 2 µM in assay [1].
`CC(=O)OC(C)c1cc2c(o1)C(=O)c1ccccc1C2=O` (stereo not shown) [Compound 303]: the IC50 in the assay on DU145 cells was 2.88 µM.
Turning to `O=C(O)c1cc2c(o1)C(=O)c1ccccc1C2=O` [Compound 405], the IC50 with DU145 cells came to 1.41 µM.
